Test results: patent US12209087B2, “AKT1 modulators” (Alterome Therapeutics, Inc., priority 2022, dated 2025)
pIC50: −log10 of the molar value.

Target: T1, full length AKT E17K (Homo sapiens, UniProt P31749, E17K)
T1 construct: host or cells: HEK-293 (ATCC CRL-1573)
Assay: NanoBRET Target Engagement (TE) Assay
Type: cell-based
Conditions: competitive displacement of tracer in cells, read-out: AKT1 E17K IC50
Method in brief: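 Compound and tracer incubated 2 h before luminescence at donor 450 nm and acceptor 600 nm, with extracellular signal inhibited. EC50 by sigmoidal variable-slope regression.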

T1 sequence (P31749 whole entry E17K): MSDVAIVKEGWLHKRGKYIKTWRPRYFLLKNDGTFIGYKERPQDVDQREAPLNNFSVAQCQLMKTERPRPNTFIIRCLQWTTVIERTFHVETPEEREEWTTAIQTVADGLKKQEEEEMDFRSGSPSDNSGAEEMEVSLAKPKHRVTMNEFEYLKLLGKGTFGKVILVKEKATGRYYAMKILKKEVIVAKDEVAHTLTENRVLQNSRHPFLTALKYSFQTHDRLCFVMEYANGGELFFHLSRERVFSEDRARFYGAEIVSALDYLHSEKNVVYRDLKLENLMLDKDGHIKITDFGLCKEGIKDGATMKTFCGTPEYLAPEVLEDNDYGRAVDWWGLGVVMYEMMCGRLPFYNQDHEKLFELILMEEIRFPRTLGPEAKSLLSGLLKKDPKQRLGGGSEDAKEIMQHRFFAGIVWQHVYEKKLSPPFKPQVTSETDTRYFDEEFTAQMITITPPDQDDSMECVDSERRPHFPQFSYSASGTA

Row | Structure (SMILES) | pIC50
1 | N#Cc1nccc(NC2CCN(Cc3ccc(-n4c(-c5cccnc5N)nc5ccc(-c6ccc(OC(F)F)nc6)nc54)cc3)CC2)n1 [Example 542, 4-((1-(4-(2-(2-Aminopyridin-3-yl)-5-(6-(difluoromethoxy)pyridin-3-yl)-3H-imidazo[4,5-b]pyridin-3-yl)benzyl)piperidin-4-yl)amino)pyrimidine-2-carbonitrile] | > 7.82
2 | N#Cc1nccc(NC2CCN(Cc3ccc(-n4c(-c5cccnc5N)nc5ccc(-c6ccnc(OC(F)F)c6)nc54)cc3)CC2)n1 [Example 543, 4-((1-(4-(2-(2-aminopyridin-3-yl)-5-(2-(difluoromethoxy)pyridin-4-yl)-3H-imidazo[4,5-b]pyridin-3-yl)benzyl)piperidin-4-yl)amino)pyrimidine-2-carbonitrile] | 7.22 to 7.82
3 | N#Cc1nccc(NC2CCN(Cc3ccc(-n4c(-c5cccnc5N)nc5ccc(-c6ccc(F)cc6O)nc54)cc3)CC2)n1 [Example 544, 4-((1-(4-(2-(2-Aminopyridin-3-yl)-5-(4-fluoro-2-hydroxyphenyl)-3H-imidazo[4,5-b]pyridin-3-yl)benzyl)piperidin-4-yl)amino)pyrimidine-2-carbonitrile] | > 7.82
4 | N#Cc1nccc(NC2CCN(Cc3ccc(-n4c(-c5cccnc5N)nc5ccc(-c6ccc(F)c(O)c6)nc54)cc3)CC2)n1 [Example 545, 4-((1-(4-(2-(2-Aminopyridin-3-yl)-5-(4-fluoro-3-hydroxyphenyl)-3H-imidazo[4,5-b]pyridin-3-yl)benzyl)piperidin-4-yl)amino)pyrimidine-2-carbonitrile] | > 7.82
5 | Cn1cncc1-c1ccc2nc(-c3cccnc3N)n(-c3ccc(CN4CCC(Nc5ccnc(C#N)n5)CC4)cc3)c2n1 [Example 546, 4-((1-(4-(2-(2-Aminopyridin-3-yl)-5-(1-methyl-1H-imidazol-5-yl)-3H-imidazo[4,5-b]pyridin-3-yl)benzyl)piperidin-4-yl)amino)pyrimidine-2-carbonitrile] | > 7.82
6 | Cc1ccc(-c2ccc3nc(-c4cccnc4N)n(-c4ccc(CN5CCC(Nc6ccnc(C#N)n6)CC5)cc4)c3n2)nc1 [Example 547, 4-((1-(4-(2-(2-Aminopyridin-3-yl)-5-(5-methylpyridin-2-yl)-3H-imidazo[4,5-b]pyridin-3-yl)benzyl)piperidin-4-yl)amino)pyrimidine-2-carbonitrile] | > 7.82
7 | N#Cc1ccnc(-c2ccc3nc(-c4cccnc4N)n(-c4ccc(CN5CCC(Nc6ccnc(C#N)n6)CC5)cc4)c3n2)c1 [Example 548, 4-((1-(4-(2-(2-Aminopyridin-3-yl)-5-(4-cyanopyridin-2-yl)-3H-imidazo[4,5-b]pyridin-3-yl)benzyl)piperidin-4-yl)amino)pyrimidine-2-carbonitrile] | > 7.82
8 | N#Cc1nccc(NC2CCN(Cc3ccc(-n4c(-c5cccnc5N)nc5cc(Br)c(-c6ccc(F)cc6)nc54)cc3)CC2)n1 [Example 549, 4-((1-(4-(2-(2-Aminopyridin-3-yl)-6-bromo-5-(4-fluorophenyl)-3H-imidazo[4,5-b]pyridin-3-yl)benzyl)piperidin-4-yl)amino)pyrimidine-2-carbonitrile] | > 7.82
9 | Cc1nc2c(cc1C#N)nc(-c1cccnc1N)n2-c1ccc(CN2CCC(Nc3ccnc(C#N)n3)CC2)cc1 [Example 550, 2-(2-Aminopyridin-3-yl)-3-(4-((4-((2-cyanopyrimidin-4-yl)amino)piperidin-1-yl)methyl)phenyl)-5-methyl-3H-imidazo[4,5-b]pyridine-6-carbonitrile] | > 7.82
10 | N#Cc1nccc(NC2CCN(Cc3ccc(-n4c(-c5cccnc5N)nc5ccc(-c6ccncc6F)nc54)cc3)CC2)n1 [Example 551, 4-((1-(4-(2-(2-aminopyridin-3-yl)-5-(3-fluoropyridin-4-yl)-3H-imidazo[4,5-b]pyridin-3-yl)benzyl)piperidin-4-yl)amino)pyrimidine-2-carbonitrile] | > 7.82
11 | COc1ccc(-c2ccc3nc(-c4cccnc4N)n(-c4ccc(CN5CCC(Nc6ccnc(C#N)n6)CC5)cc4)c3n2)nc1 [Example 552, 4-((1-(4-(2-(2-Aminopyridin-3-yl)-5-(5-methoxypyridin-2-yl)-3H-imidazo[4,5-b]pyridin-3-yl)benzyl)piperidin-4-yl)amino)pyrimidine-2-carbonitrile] | > 7.82
12 | N#Cc1cc2c(cn1)nc(-c1cccnc1N)n2-c1ccc(CN2CCC(Nc3ccnc(C#N)n3)CC2)cc1 [Example 553, 2-(2-Aminopyridin-3-yl)-1-(4-((4-((2-cyanopyrimidin-4-yl)amino)piperidin-1-yl)methyl)phenyl)-1H-imidazo[4,5-c]pyridine-6-carbonitrile] | 7.22 to 7.82
13 | Cc1ncoc1-c1ccc2nc(-c3cccnc3N)n(-c3ccc(CN4CCC(Nc5ccnc(C#N)n5)CC4)cc3)c2n1 [Example 554, 4-((1-(4-(2-(2-Aminopyridin-3-yl)-5-(4-methyloxazol-5-yl)-3H-imidazo[4,5-b]pyridin-3-yl)benzyl)piperidin-4-yl)amino)pyrimidine-2-carbonitrile] | > 7.82
14 | N#Cc1nccc(NC2CCN(Cc3ccc(-n4c(-c5cccnc5N)nc5ccc(-c6cnn(C7CC7)c6)nc54)cc3)CC2)n1 [Example 555, 4-((1-(4-(2-(2-Aminopyridin-3-yl)-5-(1-cyclopropyl-1H-pyrazol-4-yl)-3H-imidazo[4,5-b]pyridin-3-yl)benzyl)piperidin-4-yl)amino)pyrimidine-2-carbonitrile] | > 7.82
15 | N#Cc1nccc(NC2CCN(Cc3ccc(-n4c(-c5cccnc5N)nc5nc(C#N)c(C#N)nc54)cc3)CC2)n1 [Example 556, 2-(2-Aminopyridin-3-yl)-1-(4-((4-((2-cyanopyrimidin-4-yl)amino)piperidin-1-yl)methyl)phenyl)-1H-imidazo[4,5-b]pyrazine-5,6-dicarbonitrile] | 5.00 to 6.22
16 | N#Cc1nccc(NC2CCN(Cc3ccc(-n4c(-c5cccnc5N)nc5cc(C#N)c(-c6ccc(F)cc6)nc54)cc3)CC2)n1 [Example 557, 2-(2-Aminopyridin-3-yl)-3-(4-((4-((2-cyanopyrimidin-4-yl)amino)piperidin-1-yl)methyl)phenyl)-5-(4-fluorophenyl)-3H-imidazo[4,5-b]pyridine-6-carbonitrile] | > 7.82
17 | N#Cc1nccc(NC2CCN(Cc3ccc(-n4c(-c5cccnc5N)nc5ccc(-c6cccnc6F)nc54)cc3)CC2)n1 [Example 558, 4-((1-(4-(2-(2-Aminopyridin-3-yl)-5-(2-fluoropyridin-3-yl)-3H-imidazo[4,5-b]pyridin-3-yl)benzyl)piperidin-4-yl)amino)pyrimidine-2-carbonitrile] | > 7.82
18 | Cn1cnc(-c2ccc3nc(-c4cccnc4N)n(-c4ccc(CN5CCC(Nc6ccnc(C#N)n6)CC5)cc4)c3n2)n1 [Example 559, 4-((1-(4-(2-(2-Aminopyridin-3-yl)-5-(1-methyl-1H-1,2,4-triazol-3-yl)-3H-imidazo[4,5-b]pyridin-3-yl)benzyl)piperidin-4-yl)amino)pyrimidine-2-carbonitrile] | 7.22 to 7.82
19 | CCOc1ccc(-c2ccc3nc(-c4cccnc4N)n(-c4ccc(CN5CCC(Nc6ccnc(C#N)n6)CC5)cc4)c3n2)nc1 [Example 560, 4-((1-(4-(2-(2-Aminopyridin-3-yl)-5-(5-ethoxypyridin-2-yl)-3H-imidazo[4,5-b]pyridin-3-yl)benzyl)piperidin-4-yl)amino)pyrimidine-2-carbonitrile] | > 7.82
20 | N#Cc1nccc(NC2CCN(Cc3ccc(-n4c(-c5cccnc5N)nc5ccc(-c6ccnc(F)c6)nc54)cc3)CC2)n1 [Example 561, 4-((1-(4-(2-(2-Aminopyridin-3-yl)-5-(2-fluoropyridin-4-yl)-3H-imidazo[4,5-b]pyridin-3-yl)benzyl)piperidin-4-yl)amino)pyrimidine-2-carbonitrile] | > 7.82
21 | Cn1ncc(-c2ccc3nc(-c4nccnc4N)n(-c4ccc(CN5CCC(Nc6ccnc(C#N)n6)CC5)cc4)c3n2)n1 [Example 562, 4-((1-(4-(2-(3-Aminopyrazin-2-yl)-5-(2-methyl-2H-1,2,3-triazol-4-yl)-3H-imidazo[4,5-b]pyridin-3-yl)benzyl)piperidin-4-yl)amino)pyrimidine-2-carbonitrile] | > 7.82
22 | COc1cccnc1-c1ccc2nc(-c3cccnc3N)n(-c3ccc(CN4CCC(Nc5ccnc(C#N)n5)CC4)cc3)c2n1 [Example 563, 4-((1-(4-(2-(2-Aminopyridin-3-yl)-5-(3-methoxypyridin-2-yl)-3H-imidazo[4,5-b]pyridin-3-yl)benzyl)piperidin-4-yl)amino)pyrimidine-2-carbonitrile] | > 7.82
23 | Cn1nncc1-c1ccc2nc(-c3cccnc3N)n(-c3ccc(CN4CCC(Nc5ccnc(C#N)n5)CC4)cc3)c2n1 [Example 564, 4-((1-(4-(2-(2-Aminopyridin-3-yl)-5-(1-methyl-1H-1,2,3-triazol-5-yl)-3H-imidazo[4,5-b]pyridin-3-yl)benzyl)piperidin-4-yl)amino)pyrimidine-2-carbonitrile] | 7.22 to 7.82
24 | Cc1cc2nc(-c3cccnc3N)n(-c3ccc(CN4CCC(Nc5ccnc(C#N)n5)CC4)cc3)c2nc1C#N [Example 565, 2-(2-Aminopyridin-3-yl)-3-(4-((4-((2-cyanopyrimidin-4-yl)amino)piperidin-1-yl)methyl)phenyl)-6-methyl-3H-imidazo[4,5-b]pyridine-5-carbonitrile] | > 7.82
25 | Cc1nnc(-c2ccc3nc(-c4cccnc4N)n(-c4ccc(CN5CCC(Nc6ccnc(C#N)n6)CC5)cc4)c3n2)o1 [Example 566, 4-((1-(4-(2-(2-Aminopyridin-3-yl)-5-(5-methyl-1,3,4-oxadiazol-2-yl)-3H-imidazo[4,5-b]pyridin-3-yl)benzyl)piperidin-4-yl)amino)pyrimidine-2-carbonitrile] | 7.22 to 7.82
26 | Cn1ncnc1-c1ccc2nc(-c3cccnc3N)n(-c3ccc(CN4CCC(Nc5ccnc(C#N)n5)CC4)cc3)c2n1 [Example 567, 4-((1-(4-(2-(2-Aminopyridin-3-yl)-5-(1-methyl-1H-1,2,4-triazol-5-yl)-3H-imidazo[4,5-b]pyridin-3-yl)benzyl)piperidin-4-yl)amino)pyrimidine-2-carbonitrile] | > 7.82
